The source of these data is patent US10242153B2, “Method for determining the risk profile of neoplastic tissue” (NOVAZOI THERANOSTICS, priority 2014, dated 2019).

In data set [1] the test system is ZR-75-30 cells with amplified centrosomes (ZR-A). In words: Sub-G1 population in ZR-75-30 cells with amplified centrosomes (ZR-A) versus parent cells. It counts as cell-based. As to conditions: 25 μM, 48 h. Here is the method:
Panel A depicts representative DNA histograms comparing cell-cycle kinetics of ZR-75-30 cells and ZR-A cells treated with bromonoscapine (BN, 25 μM), griseofulvin (GF, 25 μM) or PJ34 (25 μM), respectively for 48 h. […] Panel B depicts a quantitative comparison of sub-G1 population in ZR-75-30 and ZR-A cells upon treatment with the three drugs with the same concentration (25 μM) for the same duration (48 h).
Accordingly, these cells can be pharmacologically manipulated with aphidicolin to generate extra centrosomes. […] Following aphidicolin wash-out, cells were stained using anti-centrin-2 antibodies to verify extra centrosomes by immunofluorescence confocal microscopy. About ˜60% ZR-75-30 cells generated extra centrosomes (6-8 per cell) and were evaluated for their sensitivity to the three drugs, griseofulvin, bromonoscapine, and PJ34, and compared with parent ZR-75-30 cells with normal centrosomes.

A further data set has as its system 231 cells. In words: Centrosome amplification (CA) by microscopy (γ-tubulin/centrin-2 foci), 231 cells. It counts as cell-based, human. Here is the method: Consequently, CA was assessed in cultures treated with different concentrations of declustering drugs for 6, 12, 18, or 24 h and untreated controls via microscopy. Centrosomes were identified by γ-tubulin and centrin-2 colocalization at discrete foci. […] The peak percent CA detected over 24 h is shown in FIG. 13 (only statistically significant (P<0.05) increases over control values are represented in the Figures). To better understand the “potency” of drug-induced CA with time, the average fold change in CA over controls over 24 h was assessed (FIG. 12, panel A), whereby the extent of CA across time points (i.e., 6, 12, 18, and 24 hr) was averaged and then divided by the extent of CA in control (i.e., 0 hr). All of the drugs at least doubled the peak extent of CA in all cell lines tested (FIG. 12, panel A), although the final extent of CA could be small or large in magnitude depending on the initial centrosomal burden as shown in FIG. 11. […] The peak extent in interphase HeLa cells was somewhat less at 30.7% and 48.1% for 10 and 25 μM RBN, respectively (FIG. 13, panel A). For Nos and BN, there was no major difference in CA levels in interphase versus mitotic cells.

A further data set deals with 231, HeLa and PC3 cells. In words: Centrosome amplification (CA) by microscopy across cancer cell lines. It counts as cell-based. As to conditions: 25 μM. How it is done: Consequently, CA was assessed in cultures treated with different concentrations of declustering drugs for 6, 12, 18, or 24 h and untreated controls via microscopy. Centrosomes were identified by γ-tubulin and centrin-2 colocalization at discrete foci.
The peak percent CA detected over 24 h is shown in FIG. 13 (only statistically significant (P<0.05) increases over control values are represented in the Figures).
To better understand the “potency” of drug-induced CA with time, the average fold change in CA over controls over 24 h was assessed (FIG. 12, panel A), whereby the extent of CA across time points (i.e., 6, 12, 18, and 24 hr) was averaged and then divided by the extent of CA in control (i.e., 0 hr). All of the drugs at least doubled the peak extent of CA in all cell lines tested (FIG. 12, panel A), although the final extent of CA could be small or large in magnitude depending on the initial centrosomal burden as shown in FIG. 11. […] The extent of CA was less in interphase cells, with maximum values of 31% and 87% for 10 and 25 μM RBN (FIG. 13, panel A). […] The peak extent in interphase HeLa cells was somewhat less at 30.7% and 48.1% for 10 and 25 μM RBN, respectively (FIG. 13, panel A). For Nos and BN, there was no major difference in CA levels in interphase versus mitotic cells.

The test system of data set [2] is human ovarian cancer xenografts. Conditions: nude mice carrying human ovarian cancer xenografts; cited from earlier work. In general terms: In xenograft studies the graft and the host belong to different species.

On to `CN(C)CC(=O)Nc1ccc2[nH]c(=O)c3ccccc3c2c1` [PJ, PJ-34], for which the “sub-G1 population versus parent ZR-75-30 cells” value in data set [1] is “much higher sub-G1 population compared to parent ZR-75-30 cells”.
For the molecule reduced-9-bromonoscapine [RBN], the “change of peak CA extent over controls” value with 231 cells (231 cells, 25 μM) was “slightly more than doubled”. Further, the “final extent of CA” value with 231 cells (231 cells, 25 μM, cell cycle stage not stated) is on record as “around 90%”. Besides, the “maximum extent of CA” value came to 31% with 231 cells (interphase 231 cells, 10 μM); 87% in the data set with 231 cells (interphase 231 cells, 25 μM); 56% in the data set on 231 cells (mitotic 231 cells, 10 μM); 96% in the data set with 231 cells (mitotic 231 cells, 25 μM). The “increase in CA over controls” value is reported as around 2.5 fold in the data set with 231 cells (mitotic 231 cells, 10 μM) and around 2.0 fold in the data set on 231 cells (mitotic 231 cells, 25 μM). In addition, the “induction of CA” value in the data set with 231, HeLa and PC3 cells is recorded as “induced CA in all three cell lines”. In data set [2], the “toxicity in normal tissues” value is given as “toxicity was not detected”. For the same molecule, the tumor progression entry in data set [2] is “inhibited tumor progression”.
